The record followed here is US11098026B2, “Fused bicyclic compounds, compositions and applications thereof” (IMPETIS BIOSCIENCES LIMITED, priority 2017, dated 2021).

In the experiment the target is T1, human GPR91 receptor (Homo sapiens, UniProt Q9BXA5).
T1 construct: expressed in transfected cells; host or cells: CHO-K1 NFAT cells
T1 sequence (Q9BXA5 1-334): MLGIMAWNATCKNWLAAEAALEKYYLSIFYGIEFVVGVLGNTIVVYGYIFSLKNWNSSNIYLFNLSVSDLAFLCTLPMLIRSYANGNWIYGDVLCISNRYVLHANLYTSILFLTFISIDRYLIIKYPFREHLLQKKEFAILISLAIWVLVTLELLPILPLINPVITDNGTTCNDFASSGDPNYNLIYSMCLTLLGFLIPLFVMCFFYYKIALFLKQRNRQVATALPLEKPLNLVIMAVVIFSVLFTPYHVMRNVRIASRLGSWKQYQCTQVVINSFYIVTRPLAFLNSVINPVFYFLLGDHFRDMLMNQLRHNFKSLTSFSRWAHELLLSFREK
Kind of experiment: Human GPR91 calcium mobilization assay. The note with it: CHO-K1 NFAT cells over expressing human GPR91 receptor; Fluo4 AM; agonist sodium succinate; flex station; read-out: hGPR91 IC50 (μM)*. It counts as cell-based. As to the method:
Human GPR91 Calcium Mobilization Assay
To determine IC50 in CHO NFAT cells over expressing human GPR91 receptor calcium mobilization assay in flex station mode was carried out.
Grow CHO-K1 NFAT cells over expressing human GPR91 receptors in alpha MEM media were supplemented with 10% FBS (heat inactivated), 0.5 mg/ml of G-418, 0.5 mg/ml of Zeocin and 0.6 mg/ml of Hygromycin B.
The cells were seeded at least 21 hours before the experiment at the density of 25000/well in 96 well plate (Corning cat #no. 3603). It was made sure that cells were at least 95% confluent on the day of assay. No antibiotics were used for seeding purpose.
On the day of assay the media was discarded from plates and plates were washed with 100 μl of HBSS assay buffer. The plates were loaded with Fluo4 AM at 2 μM concentration. Pluronic F-127 dye was solubilized in calcium assay buffer containing 0.1% BSA, i.e., 20 μl dye+20 μl Pluronic F127 for 10 ml. Appropriate amounts of 100× probenecid was added to the loading mixture 1× final (100 μl per 10 ml). Total volume of dye loaded was made 100 μl. The plate was then wrapped in aluminium foil to protect from light and were incubated for 90 mins at 37 degrees in cell culture incubator. At the end of incubation the plates was washed again with 100 μl of HBSS buffer without BSA and 75 μl of HBSS buffer was added (without BSA) to the plate.
Further, 8 point-Dose response curve of the compounds of the present disclosure was prepared in 100% DMSO followed by 57.14-fold dilution to 1.75× in 1.75% DMSO in assay buffer. 100 μL of 1.75×NCE was added to the wells as shown below and incubated at room temp on orbital shaker at 300 rpm for 15 min. Flexstation [excitation @ 485 nm and emission @ 525 nm] for a total time of 60 seconds. 25 μL of 8× agonist (800 μM sodium succinate) was added to each well using the flexstation after establishing the baseline for 20 sec, Measurement—Max-Min over 60 sec. Using the above protocol results obtained are tabulate din the Table 1 below: […]
In the case of `O=C(O)Cc1cccc(Oc2ccc(Oc3ccc4cnc(C(=O)O)n4c3)cc2C(F)(F)F)c1` [Compound A-31, 6-[4-[3-(carboxymethyl)phenoxy]-3-(trifluoromethyl)phenoxy]imidazo[1,5-a]pyridine-3-carboxylic acid], the IC50 (in general, the concentration that gives 50% inhibition) was below 5 µM.

On to `O=C(O)Cc1cccc(Oc2ccc(Oc3ccc4c(ccn4CC(=O)O)c3)cc2C(F)(F)F)c1` [Compound A-32, 2-[3-[4-[1-(carboxymethyl)indol-5-yl]oxy-2-(trifluoromethyl)phenoxy]phenyl]acetic acid], for which the IC50 is above 10 µM.

With `O=C(O)Cc1cccc(Oc2ccc(Oc3ccc4ccn(CC(=O)O)c4c3)cc2C(F)(F)F)c1` [Compound A-33, 2-[3-[4-[1-(carboxymethyl)indol-6-yl]oxy-2-(trifluoromethyl)phenoxy]phenyl]acetic acid], the concentration for half-maximal inhibition (IC50) is below 5 µM.

With `O=C(O)CCc1ccc(Oc2ccc(Oc3cccc4ccncc34)cc2C(F)(F)F)cc1` [Compound A-34, 3-[4-[4-(8-isoquinolyloxy)-2-(trifluoromethyl)phenoxy]phenyl]propanoic acid], the IC50 is below 5 µM.

Consider `Cn1cc2cc(Oc3ccc(Oc4cccc(CCC(=O)O)c4)c(C(F)(F)F)c3)ccc2n1` [Compound A-35, 3-[3-[4-(2-methylindazol-5-yl)oxy-2-(trifluoromethyl)phenoxy]phenyl]propanoic acid], for which the IC50 is below 5 µM.

Turning to `O=C(O)Cc1cccc(Oc2ncc(Oc3cccc4ccncc34)cc2C(F)(F)F)c1` [Compound A-36, 2-[3-[[5-(8-isoquinolyloxy)-3-(trifluoromethyl)-2-pyridyl]oxy]phenyl]acetic acid], the IC50 was below 5 µM.

`O=C(O)CCc1cccc(Oc2ccc(Oc3cccc4nccn34)cc2C(F)(F)F)c1` [Compound A-37, 3-[3-[4-imidazo[1,2-a]pyridin-5-yloxy-2-(trifluoromethyl)phenoxy]phenyl]propanoic acid]: the IC50 was above 10 µM.

Regarding `O=C(O)Cc1cccc(Oc2ccc(Oc3cccc4ccncc34)cc2C2CC2)c1` [Compound A-38, 2-[3-[2-cyclopropyl-4-(8-isoquinolyloxy)phenoxy]phenyl]acetic acid], the IC50 was below 5 µM.

With `Cc1nc2ccc(Oc3ccc(Oc4cccc(CC(=O)O)c4)c(C4CC4)c3)cc2n1C1COC1` [Compound A-39, 2-[3-[2-cyclopropyl-4-[2-methyl-3-(oxetan-3-yl)benzimidazol-5-yl]oxy-phenoxy]phenyl]acetic acid], the IC50 was below 5 µM.

In the case of `O=C(O)Cc1cccc(Oc2ccc(Oc3cccc4ccnc(Cl)c34)cc2C(F)(F)F)c1` [Compound A-40, 2-[3-[4-[(1-chloro-8-isoquinolyl)oxy]-2-(trifluoromethyl)phenoxy]phenyl]acetic acid], the IC50 was below 5 µM.

Turning to `Cc1nccc2cccc(Oc3ccc(Oc4cccc(CC(=O)O)c4)c(C(F)(F)F)c3)c12` [Compound A-41, 2-[3-[4-[(1-methyl-8-isoquinolyl)oxy]-2-(trifluoromethyl)phenoxy]phenyl]acetic Acid], the IC50 is below 5 µM.

As for `O=C(O)CCc1cccc(Oc2ccc(Oc3cccc4ccncc34)cc2C(F)(F)F)c1` [Compound A-42, 3-[3-[4-(8-isoquinolyloxy)-2-(trifluoromethyl)phenoxy]phenyl]propanoic acid], the IC50 is below 5 µM.

On to `O=C(O)CCc1cccc(Oc2ccc(Oc3cccc4c3CNCC4)cc2C(F)(F)F)c1` [Compound A-43, 3-[3-[4-(1,2,3,4-tetrahydroisoquinolin-8-yloxy)-2-(trifluoromethyl)phenoxy]phenyl]propanoic acid], for which the IC50 is above 10 µM.

Take `O=C(O)CCc1cccc(Oc2ccc(OC3CCc4ccccc43)cc2C(F)(F)F)c1` (stereo not drawn) [Compound A-44, 3-[3-[4-indan-1-yloxy-2-(trifluoromethyl)phenoxy]phenyl]propanoic acid]: the IC50 is 5 to 10 µM.

As for `O=C(O)CCc1cccc(Oc2ccc(Oc3ccc4[nH]ncc4c3)cc2C(F)(F)F)c1` [Compound A-45, 3-[3-[4-(1H-indazol-5-yloxy)-2-(trifluoromethyl)phenoxy]phenyl]propanoic acid], the IC50 is below 5 µM.
